This is an account of results in patent publication US20050026189A1, “Microbial operons” (priority 2003, published 2005).

Values after ≈ are worked out from the molar mass of the structure shown. Where two headings read alike, the source gives them in different places. Positions of bridges follow the written chain, without caps; N, C: chain ends. Non-standard residues stand in square brackets, D forms with d. Residues, ends and D or L forms follow the SMILES beside them. *: point of attachment. Ileψ(thiazoline)Cys = CC[C@H](C)[C@H](N)C1=N[C@H](C(=O)*)CS1; dOrn = NCCC[C@@H](N)C(=O)O

Experiment [1] has as its system E. coli transcribing antisense RNA to rplL and rplJ (AS-rplL/J). In words: microbe, parasite or virus in culture. Conditions: for Fold Increase in Sensitivity: IC50 without IPTG versus IC50 with 400 μM IPTG; for Sensitivity Increased?: statistically significant decrease in the IC50 value in the presence of inducer (IPTG); for IC50: Escherichia coli. In kind it is cell-based. The method, then:
The effectiveness of the above assays was validated using proliferation-required genes from E. coli which were identified using procedures similar to those described above. Antibiotics of various chemical classes and modes of action were purchased from Sigma Chemicals (St. Louis, Mo.). Stock solutions were prepared by dissolving each antibiotic in an appropriate aqueous solution based on information provided by the manufacturer. The final working solution of each antibiotic contained no more than 0.2% (w/v) of any organic solvent. To determine their potency against a bacterial strain engineered for transcription of an antisense comprising a nucleotide sequence complementary to a proliferation-required 50S ribosomal protein, each antibiotic was serially diluted two- or three-fold in growth medium supplemented with the appropriate antibiotic for maintenance of the antisense construct. At least ten dilutions were prepared for each antibiotic. 25 μL aliquots of each dilution were transferred to discrete wells of a 384-well microplate (the assay plate) using a multi-channel pipette. Quadruplicate wells were used for each dilution of an antibiotic under each treatment condition (plus and minus inducer). Each assay plate contained twenty wells for cell growth controls (growth medium replacing antibiotic), ten wells for each treatment (plus and minus inducer, in this example IPTG). Assay plates were usually divided into the two treatments: half the plate containing induced cells and an appropriate concentrations of inducer (in this example IPTG) to maintain the state of induction, the other half containing non-induced cells in the absence of IPTG.
Cells for the assay were prepared as follows. Bacterial cells containing a construct, from which transcription of antisense nucleic acid comprising a nucleotide sequence complementary to rplL and rplJ (AS-rplL/J), which encode proliferation-required 50S ribosomal subunit proteins, is inducible in the presence of IPTG, were grown into exponential growth (OD600 0.2 to 0.3) and then diluted 1:100 into fresh medium containing either 400 μM or 0 μM inducer (IPTG). These cultures were incubated at 37° C. for 2.5 hr. After a 2.5 hr incubation, induced and non-induced cells were respectively diluted into an assay medium at a final OD600 value of 0.0004. The medium contained an appropriate concentration of the antibiotic for the maintenance of the antisense construct. In addition, the medium used to dilute induced cells was supplemented with 800 μM IPTG so that addition to the assay plate would result in a final IPTG concentration of 400 μM. Induced and non-induced cell suspensions were dispensed (25 μl/well) into the appropriate wells of the assay plate as discussed previously. The plate was then loaded into a plate reader, incubated at constant temperature, and cell growth was monitored in each well by the measurement of light scattering at 595 nm. Growth was monitored every 5 minutes until the cell culture attained a stationary growth phase. For each concentration of antibiotic, a percentage inhibition of growth was calculated at the time point corresponding to mid-exponential growth for the associated control wells (no antibiotic, plus or minus IPTG). For each antibiotic and condition (plus or minus IPTG), a plot of percent inhibition versus log of antibiotic concentration was generated and the IC50 determined.

For experiment [2], the system named is Staphylococcus aureus cells transcribing antisense to gyrB. In words: Antibiotic potency in Staphylococcus aureus cells with and without xylose-induced antisense to the Beta subunit of DNA gyrase (FIG. 10). In kind it is cell-based. As to conditions: 12 mM xylose versus 0 mM xylose; antisense to β subunit of gyrase. The method, then: Antibiotics of various chemical classes and modes of action were purchased from chemical suppliers, for example Sigma Chemicals (St. Louis, Mo). Stock solutions were prepared by dissolving each antibiotic in an appropriate aqueous solution based on information provided by the manufacturer. The final working solution of each antibiotic contained no more than 0.2% (w/v) of any organic solvent.
To determine its potency against a bacterial strain containing an antisense nucleic acid comprising a nucleotide sequence complementary to the nucleotide sequence encoding the Beta subunit of DNA gyrase (which is required for proliferation) under the control of a xylose inducible promoter, each antibiotic was serially diluted two- or three-fold in growth medium supplemented with the appropriate antibiotic for maintenance of the antisense construct. At least ten dilutions were prepared for each antibiotic.
Aliquots (25 μL) of each dilution were transferred to discrete wells of a 384-well microplate (the assay plate) using a multi-channel pipette. Quadruplicate wells were used for each dilution of an antibiotic under each treatment condition (plus and minus inducer). Each assay plate contained twenty wells for cell growth controls (growth medium, no antibiotic), ten wells for each treatment (plus and minus inducer, xylose, in this example). Half the assay plate contained induced cells (in this example Staphylococcus aureus cells) and appropriate concentrations of inducer (xylose, in this example) to maintain the state of induction while the other half of the assay plate contained non-induced cells maintained in the absence of inducer.
Cells of a bacterial clone containing a construct in which transcription of antisense comprising a nucleotide sequence complementary to the sequence encoding the Beta subunit of DNA gyrase under the control of the xylose inducible promoter (S1M10000001F08) were grown into exponential growth (OD600 0.2 to 0.3) and then diluted 1:100 into fresh medium containing either 12 mM or 0 mM inducer (xylose). These cultures were incubated at 37° C. for 2.5 hr. The presence of inducer (xylose) in the medium initiates and maintains production of antisense RNA from the antisense construct. After a 2.5 hr incubation, induced and non-induced cells were respectively diluted into an assay medium containing an appropriate concentration of the antibiotic for the maintenance of the antisense construct. In addition, medium used to dilute induced cells was supplemented with 24 mM xylose so that addition to the assay plate would result in a final xylose concentration of 12 mM. The cells were diluted to a final OD600 value of 0.0004.
Induced and non-induced cell suspensions were dispensed (25 μl/well) into the appropriate wells of the assay plate as discussed previously. The plate was then loaded into a plate reader and incubated at constant temperature while cell growth was monitored in each well by the measurement of light scattering at 595 nm. Growth was monitored every 5 minutes until the cell culture attained a stationary growth phase. For each concentration of antibiotic, a percentage inhibition of growth was calculated at the time point corresponding to mid-exponential growth for the associated control wells (no antibiotic, plus or minus xylose). For each antibiotic and condition (plus or minus xylose), plots of percent inhibition versus Log of antibiotic concentration were generated and IC50s, determined.

As for `CC[C@H](C)[C@H](N)C1=N[C@H](C(=O)N[C@@H](CC(C)C)C(=O)N[C@H](CCC(=O)O)C(=O)N[C@H](C(=O)N[C@H]2CCCCNC(=O)[C@H](CC(N)=O)NC(=O)[C@@H](CC(=O)O)NC(=O)[C@H](Cc3cnc[nH]3)NC(=O)[C@@H](Cc3ccccc3)NC(=O)[C@H]([C@@H](C)CC)NC(=O)[C@@H](CCCN)NC2=O)[C@@H](C)CC)CS1` [Bacitracin] ({Ileψ(thiazoline)Cys}-L[dE]IK[dOrn]I[dF]H[dD]N; lactam 4-C), in experiment [1], the “Fold Increase in Sensitivity” value is recorded as 1 Fold and the “Sensitivity Increased?” value is “No”.
Take `CO/N=C(\C(=O)N[C@@H]1C(=O)N2C(C(=O)O)=C(COC(C)=O)CS[C@H]12)c1csc(N)n1` [Cefotaxime]: in experiment [1], the “Fold Increase in Sensitivity” value was found to be 1 Fold and the “Sensitivity Increased?” value is reported as “No”. In addition, the “potency in induced cells as compared to uninduced cells” value (“potency … compared to uninduced cells” for short) in experiment [2] is “not significantly different”.
On to `CO[C@@]1(NC(=O)Cc2cccs2)C(=O)N2C(C(=O)O)=C(COC(N)=O)CS[C@@H]21` [Cefoxitin], for which, in experiment [1], the “Fold Increase in Sensitivity” value amounted to 1 Fold and the “Sensitivity Increased?” value is on record as “No”. For the same molecule, the “potency … compared to uninduced cells” value in experiment [2] is “not significantly different”.
In the case of `O=C(N[C@H](CO)[C@H](O)c1ccc([N+](=O)[O-])cc1)C(Cl)Cl` [Chloramphenicol], in experiment [1], the “Fold Increase in Sensitivity” value came out at 307 Fold and the “Sensitivity Increased?” value is reported as “Yes”.
Take `C[C@H]1c2cccc(O)c2C(=O)C2=C(O)[C@]3(O)C(=O)C(C(N)=O)=C(O)[C@@H](N(C)C)[C@@H]3[C@@H](O)[C@@H]21` [Doxycycline]: the “Fold Increase in Sensitivity” value in experiment [1] came out at 15 Fold.
On to `CC(=O)O[C@H]1C[C@@]2(C)[C@@H](C[C@@H](O)[C@H]3[C@@]4(C)CC[C@@H](O)[C@@H](C)[C@@H]4CC[C@@]32C)/C1=C(\CCC=C(C)C)C(=O)O` [Fusidic acid], for which, in experiment [1], the “Fold Increase in Sensitivity” value amounted to 94 Fold and the “Sensitivity Increased?” value is given as “Yes”. For the same molecule, in experiment [2], the “potency … compared to uninduced cells” value is on record as “not significantly different”.
For `CCC[C@@H]1C[C@@H](C(=O)N[C@@H]([C@H]2O[C@H](SC)[C@H](O)[C@@H](O)[C@H]2O)[C@@H](C)O)N(C)C1` [Lincomycin] the same measures were 145 Fold, “Yes” and “not significantly different”.
With `CN(C)c1ccc(O)c2c1C[C@H]1C[C@H]3[C@H](N(C)C)C(O)=C(C(N)=O)C(=O)[C@@]3(O)C(O)=C1C2=O` [Minocycline], the “Fold Increase in Sensitivity” value in experiment [1] is 172 Fold.
Still for that read-out and setting: under `CC1COc2c(N3CCN(C)CC3)c(F)cc3c(=O)c(C(=O)O)cn1c23` (stereo not drawn) [Ofloxacin] stands 1 Fold.
With `CN[C@@H]1[C@H](O)[C@H](NC)[C@H]2O[C@@]3(O)C(=O)C[C@@H](C)O[C@H]3O[C@@H]2[C@H]1O` [Spectinomycin], in experiment [1], the “Sensitivity Increased?” value is given as “Yes”.
`[H]/N=C(/N)N[C@H]1[C@H](O)[C@@H](O)[C@H](O[C@@H]2O[C@@H](C)[C@](O)(C=O)[C@H]2O[C@@H]2O[C@@H](CO)[C@H](O)[C@@H](O)[C@@H]2NC)[C@@H](N/C(N)=N\[H])[C@@H]1O` [Streptomycin]: in experiment [1], the “Fold Increase in Sensitivity” value is recorded as 70 Fold and the “Sensitivity Increased?” value was “Yes”.
Consider `CN(C)[C@@H]1C(O)=C(C(N)=O)C(=O)[C@@]2(O)C(O)=C3C(=O)c4c(O)cccc4[C@@](C)(O)[C@H]3C[C@@H]12` [Tetracycline], for which the “Fold Increase in Sensitivity” value in experiment [1] was 109 Fold.
Turning to `NC[C@H]1O[C@H](O[C@H]2[C@H](O)[C@@H](O[C@H]3O[C@H](CO)[C@@H](O)[C@H](N)[C@H]3O)[C@H](N)C[C@@H]2N)[C@H](N)C[C@@H]1O` [Tobramycin], in experiment [1], the “Fold Increase in Sensitivity” value is 51 Fold and the “Sensitivity Increased?” value was “Yes”. Further, the “potency … compared to uninduced cells” value in experiment [2] is listed as “not significantly different”.
Consider `COc1cc(Cc2cnc(N)nc2N)cc(OC)c1OC` [Trimethoprim], for which the “potency … compared to uninduced cells” value in experiment [2] was “not significantly different”.
As usually defined, the IC50 is the midpoint of a concentration-inhibition curve. Take `CN[C@H](CC(C)C)C(=O)N[C@H]1C(=O)N[C@@H](CC(N)=O)C(=O)N[C@H]2C(=O)N[C@H]3C(=O)N[C@H](C(=O)N[C@H](C(=O)O)c4cc(O)cc(O)c4-c4cc3ccc4O)[C@H](O)c3ccc(c(Cl)c3)Oc3cc2cc(c3O[C@@H]2O[C@H](CO)[C@@H](O)[C@H](O)[C@H]2O[C@H]2C[C@](C)(N)[C@H](O)[C@H](C)O2)Oc2ccc(cc2Cl)[C@H]1O` [Vancomycin]: the IC50 in experiment [1] (read-out: IC50 (+IPTG)) is 72.5 µg/mL (≈ 50.1 µM). Besides, in experiment [1] (read-out: IC50 (−IPTG)), the IC50 stood at 145 µg/mL (≈ 100 µM). Further, in experiment [1], the “Fold Increase in Sensitivity” value is 2 Fold and the “Sensitivity Increased?” value is listed as “No”. Moreover, the “potency … compared to uninduced cells” value in experiment [2] is “not significantly different”.
Consider Gentamicin, for which, in experiment [1], the “Fold Increase in Sensitivity” value is 141 Fold and the “Sensitivity Increased?” value is recorded as “Yes”. In experiment [1] (induced cells, 400 μM IPTG), the “IC50 (+IPTG)” value was 0.01919 µg/mL. The “IC50 (−IPTG)” value in experiment [1] (non-induced cells, 0 μM IPTG) was found to be 2.715 µg/mL.
